The source of these data is patent publication US20150126581A1, “MicroRNAs and Uses Thereof” (The University of Western Australia, priority 2012, published 2015).

One assay relates to obese diabetic mice. As to conditions: cited from earlier work.
In assay [1] the test system is HeLa cells. Nature of the assay: Observation of HeLa cell morphology and size under mimosine. It is filed as cell-based, human. As to conditions: increasing concentrations of mimosine. How it is done:
The effect of the combination of hsa-miR-331-3p and hsa-miR-642-5p on the transient effects of the DOHH inhibitor mimosine in HeLa cells was assessed. Initially, the xCELLigence™ System was used but growth curves could not be established using mimosine that reflected the observed changes in cell viability (data not shown). […] This was attributed to the ability of mimosine to arrest cell in […] and increase cell size by up to 25%.

Assay [2] relates to HeLa cells. As to conditions: stated ability of mimosine (arrest in G1); cited from earlier work.
In assay [3] the test system is HeLa cells. Briefly: CellTiter 96 AQueous One (MTS) endpoint growth assay with mimosine. It is filed as cell-based, human. The following applies: mimosine 50 and 250 μM, 3 d exposure (Day 5 post miRNA transfection). As for the experimental part: Endpoint growth assays were then performed using the CellTiter 96® AQueous One Solution Cell Proliferation System (MTS) (Promega, USA) to determine effects of miRNAs and mimosine on cell proliferation. HeLa cells were transiently transfected with miRNA negative control or hsa-miR-331-3p/hsa-miR-642-5p as described above, and 5000 transiently transfected HeLa cells were plated in 96 well plates. Plates were incubated in a 37° C. incubator (5% CO2) for 2 days and then exposed for a further 3 days to mimosine (0, 50 or 250 μM). Media was then replaced with a MTS substrate/growth media mixture (180 μL of growth media, 20 μL MTS reagent) and left for 30 min at 37° C. Absorbance was measured using a Fluostar Optima Instrument (Walker scientific) at 450 nm.

Regarding `N=C(N)NCCCCCCCN` [GC7, N1-guanyl-1,7-diaminoheptane], in the assay on obese diabetic mice, the Glucose tolerance result was “improved glucose tolerance”, the Insulin release entry is listed as “increased insulin release” and the β cell mass result was “enhanced β cell mass”.
With `NC(Cn1ccc(=O)c(O)c1)C(=O)O` (stereo not drawn) [mimosine], the HeLa cell morphology result with HeLa cells [1] is “changed the morphology of HeLa cells from a spindle like epithelial morphology to a large, round and flattened morphology”. Also, in the assay with HeLa cells [2], the “Increase of cell size” value is given as “up to 25%”. In the assay with HeLa cells [3], the “HeLa cell proliferation (MTS), mimosine alone” value is recorded as “significant block of cell proliferation”.
